{
  "source": "paper PMC8930249",
  "about": "“Elucidating the Novel Mechanism of Ligustrazine in Preventing Postoperative Peritoneal Adhesion Formation” (Oxidative Medicine and Cellular Longevity, 2022)",
  "target": "T1, PPARγ (Homo sapiens, UniProt P37231)",
  "T1 construct": "gene PPARG; recombinant His-tagged PPARγ (pET10), wild type",
  "T1 sequence (P37231 1-505)": "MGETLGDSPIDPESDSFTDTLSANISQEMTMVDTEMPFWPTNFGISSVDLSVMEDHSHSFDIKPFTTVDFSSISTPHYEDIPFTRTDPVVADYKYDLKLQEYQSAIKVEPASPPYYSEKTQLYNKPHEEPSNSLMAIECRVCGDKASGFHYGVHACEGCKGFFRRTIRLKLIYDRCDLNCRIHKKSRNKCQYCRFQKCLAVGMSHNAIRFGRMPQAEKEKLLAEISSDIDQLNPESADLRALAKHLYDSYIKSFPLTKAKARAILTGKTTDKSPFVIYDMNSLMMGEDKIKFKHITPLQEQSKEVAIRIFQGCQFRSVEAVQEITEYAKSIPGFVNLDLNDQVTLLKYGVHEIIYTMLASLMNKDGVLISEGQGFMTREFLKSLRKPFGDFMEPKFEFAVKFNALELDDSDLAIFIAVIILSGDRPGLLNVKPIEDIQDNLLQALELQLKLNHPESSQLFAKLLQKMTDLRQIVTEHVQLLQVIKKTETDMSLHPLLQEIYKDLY",
  "experiment": "biolayer interferometry (Octet RED […]), Ni-NTA immobilised His-tagged protein",
  "type": "binding",
  "data": [
    {"smiles": "Cc1nc(C)c(C)nc1C", "note": "[Ligustrazine]", "values": [
      {"measurement": "Kd", "value": 39.4, "unit": "µM"}
    ]}
  ]
}
